Experiment [1] deals with Tyrosine-protein kinase JAK2 (Homo sapiens, UniProt O60674). The settings on record: at 10 µM.
Experiment [2] has as its target T1, Serine/threonine-protein kinase STK11 (Homo sapiens) (UniProt Q15831).
T1 sequence (whole entry): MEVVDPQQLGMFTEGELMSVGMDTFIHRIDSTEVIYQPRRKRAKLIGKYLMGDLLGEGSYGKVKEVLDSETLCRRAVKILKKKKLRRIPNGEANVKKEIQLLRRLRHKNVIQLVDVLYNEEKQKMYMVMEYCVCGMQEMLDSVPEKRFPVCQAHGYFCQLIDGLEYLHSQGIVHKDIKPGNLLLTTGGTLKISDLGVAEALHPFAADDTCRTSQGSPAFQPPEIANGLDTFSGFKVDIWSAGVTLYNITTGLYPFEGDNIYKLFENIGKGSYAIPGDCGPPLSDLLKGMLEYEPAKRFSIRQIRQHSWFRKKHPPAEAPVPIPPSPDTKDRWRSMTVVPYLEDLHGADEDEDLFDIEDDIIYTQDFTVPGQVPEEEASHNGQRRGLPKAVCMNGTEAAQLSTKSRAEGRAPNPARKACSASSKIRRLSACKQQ
The settings on record: at 10 µM.

For experiment [3], the system named is Phosphatidylinositol 4,5-bisphosphate 3-kinase catalytic subunit alpha isoform (Homo sapiens), P42336 [C420R]. Put plainly: (§1) Selectivity interaction (KinomeScan (DiscoverX)) EUB0000655a PIK3CA. Conditions: at 10 µM.
Experiment [4] concerns Phosphatidylinositol 4,5-bisphosphate 3-kinase catalytic subunit alpha isoform (Homo sapiens), P42336 [E542K]. Described as §1. The settings on record: at 10 µM.
Experiment [5] deals with Phosphatidylinositol 4,5-bisphosphate 3-kinase catalytic subunit alpha isoform (Homo sapiens), P42336 [E545A]. The description is as §1. Conditions: at 10 µM.
For experiment [6], the system named is Phosphatidylinositol 4,5-bisphosphate 3-kinase catalytic subunit alpha isoform (Homo sapiens), P42336 [H1047Y]. Described as §1. The settings on record: at 10 µM.
In experiment [7] the test system is Phosphatidylinositol 4,5-bisphosphate 3-kinase catalytic subunit alpha isoform (Homo sapiens), P42336 [M1043I]. Described as §1. The settings on record: at 10 µM.
Experiment [8] concerns the target Ribosomal protein S6 kinase alpha-6 (Homo sapiens, UniProt Q9UK32). Put plainly: Selectivity interaction (KinomeScan (DiscoverX)) EUB0000655a RPS6KA6. Conditions: at 10 µM.
Experiment [9] deals with T2, Ribosomal protein S6 kinase delta-1 (Homo sapiens) (UniProt Q96S38).
T2 sequence (whole entry): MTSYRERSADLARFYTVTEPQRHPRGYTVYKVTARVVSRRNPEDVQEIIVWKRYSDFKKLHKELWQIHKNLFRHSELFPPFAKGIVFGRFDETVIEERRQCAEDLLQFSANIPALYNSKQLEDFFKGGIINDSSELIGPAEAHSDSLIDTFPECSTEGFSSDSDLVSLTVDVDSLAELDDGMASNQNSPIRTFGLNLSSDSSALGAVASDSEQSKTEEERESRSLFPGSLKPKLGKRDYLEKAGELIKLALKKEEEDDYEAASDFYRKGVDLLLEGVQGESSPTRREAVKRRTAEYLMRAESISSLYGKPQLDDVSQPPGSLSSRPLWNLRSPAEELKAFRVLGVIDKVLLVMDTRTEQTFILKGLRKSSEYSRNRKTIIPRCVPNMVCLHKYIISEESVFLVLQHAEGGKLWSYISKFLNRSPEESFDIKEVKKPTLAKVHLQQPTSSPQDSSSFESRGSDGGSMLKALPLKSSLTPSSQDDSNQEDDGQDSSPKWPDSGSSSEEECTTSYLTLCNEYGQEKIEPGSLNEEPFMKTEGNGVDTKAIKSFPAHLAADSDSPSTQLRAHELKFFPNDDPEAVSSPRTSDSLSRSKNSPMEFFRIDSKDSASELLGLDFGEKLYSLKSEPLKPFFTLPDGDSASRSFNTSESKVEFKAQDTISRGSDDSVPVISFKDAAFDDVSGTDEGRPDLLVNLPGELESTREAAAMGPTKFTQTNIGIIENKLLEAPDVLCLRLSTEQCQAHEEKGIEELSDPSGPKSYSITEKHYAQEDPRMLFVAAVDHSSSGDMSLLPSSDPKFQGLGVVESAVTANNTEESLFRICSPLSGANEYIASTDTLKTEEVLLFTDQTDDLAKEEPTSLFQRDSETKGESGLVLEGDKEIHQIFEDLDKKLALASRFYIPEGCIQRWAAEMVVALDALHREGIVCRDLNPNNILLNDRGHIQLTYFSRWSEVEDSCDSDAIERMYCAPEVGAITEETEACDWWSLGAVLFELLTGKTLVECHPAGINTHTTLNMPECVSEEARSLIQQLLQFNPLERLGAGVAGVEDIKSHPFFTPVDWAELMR
Put plainly: Selectivity interaction (ActivX KiNativ screen (ex vivo kinase selectivity in human PBMCs)) EUB0001619a RPS6KC1. The settings on record: PBMC, at 1 µM. It is filed as cell-based.

The target of experiment [10] is T3, Serine/threonine-protein kinase D1 (Homo sapiens) (UniProt Q15139).
T3 sequence (whole entry): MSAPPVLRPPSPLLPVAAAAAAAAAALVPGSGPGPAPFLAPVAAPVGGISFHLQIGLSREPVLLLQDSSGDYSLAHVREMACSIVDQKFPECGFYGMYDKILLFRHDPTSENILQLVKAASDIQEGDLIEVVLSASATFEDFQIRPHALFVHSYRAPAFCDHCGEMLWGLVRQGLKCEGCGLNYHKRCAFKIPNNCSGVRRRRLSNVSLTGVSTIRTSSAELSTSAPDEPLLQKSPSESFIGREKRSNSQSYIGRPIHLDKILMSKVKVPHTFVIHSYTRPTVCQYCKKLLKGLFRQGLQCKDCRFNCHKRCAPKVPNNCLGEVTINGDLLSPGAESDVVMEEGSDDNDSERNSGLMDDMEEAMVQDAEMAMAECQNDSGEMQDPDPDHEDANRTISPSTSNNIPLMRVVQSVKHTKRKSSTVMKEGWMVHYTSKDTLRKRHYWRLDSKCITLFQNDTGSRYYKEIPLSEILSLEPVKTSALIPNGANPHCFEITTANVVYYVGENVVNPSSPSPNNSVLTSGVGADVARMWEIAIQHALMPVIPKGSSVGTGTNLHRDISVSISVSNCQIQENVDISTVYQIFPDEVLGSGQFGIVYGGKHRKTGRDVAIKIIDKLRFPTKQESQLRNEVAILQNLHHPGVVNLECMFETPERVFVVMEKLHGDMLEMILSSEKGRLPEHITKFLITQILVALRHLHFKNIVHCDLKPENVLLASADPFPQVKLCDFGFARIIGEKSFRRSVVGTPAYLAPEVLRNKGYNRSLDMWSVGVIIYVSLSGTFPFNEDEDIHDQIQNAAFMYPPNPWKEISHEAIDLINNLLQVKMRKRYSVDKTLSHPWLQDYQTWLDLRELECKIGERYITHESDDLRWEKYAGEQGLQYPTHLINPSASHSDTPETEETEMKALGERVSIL
Put plainly: Selectivity interaction (Kinase panel (Invitrogen)) EUB0000639a PRKD1. Conditions: at 200 nM.

Experiment [11] deals with RAC-beta serine/threonine-protein kinase (Homo sapiens) (UniProt P31751). Put plainly: Selectivity interaction (KinomeScan (DiscoverX)) EUB0000045b AKT2.

The structures appear in SMILES notation.

RAC-beta serine/threonine-protein kinase (Homo sapiens), sequence (P31751 whole entry): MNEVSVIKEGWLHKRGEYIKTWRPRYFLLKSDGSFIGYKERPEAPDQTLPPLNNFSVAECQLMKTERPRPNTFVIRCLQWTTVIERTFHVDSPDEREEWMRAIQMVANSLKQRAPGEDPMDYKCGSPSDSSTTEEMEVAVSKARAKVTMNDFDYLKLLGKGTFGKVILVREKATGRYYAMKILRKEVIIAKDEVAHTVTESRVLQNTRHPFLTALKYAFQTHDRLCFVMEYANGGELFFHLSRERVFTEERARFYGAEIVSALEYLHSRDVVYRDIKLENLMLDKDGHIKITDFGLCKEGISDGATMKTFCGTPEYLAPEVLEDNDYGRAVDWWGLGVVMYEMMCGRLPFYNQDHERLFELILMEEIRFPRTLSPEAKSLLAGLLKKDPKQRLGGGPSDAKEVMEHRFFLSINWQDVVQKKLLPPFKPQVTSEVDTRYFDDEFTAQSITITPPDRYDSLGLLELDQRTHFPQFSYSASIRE
Phosphatidylinositol 4,5-bisphosphate 3-kinase catalytic subunit alpha isoform (Homo sapiens), P42336 [E542K], sequence (P42336 whole entry E542K, canonical isoform): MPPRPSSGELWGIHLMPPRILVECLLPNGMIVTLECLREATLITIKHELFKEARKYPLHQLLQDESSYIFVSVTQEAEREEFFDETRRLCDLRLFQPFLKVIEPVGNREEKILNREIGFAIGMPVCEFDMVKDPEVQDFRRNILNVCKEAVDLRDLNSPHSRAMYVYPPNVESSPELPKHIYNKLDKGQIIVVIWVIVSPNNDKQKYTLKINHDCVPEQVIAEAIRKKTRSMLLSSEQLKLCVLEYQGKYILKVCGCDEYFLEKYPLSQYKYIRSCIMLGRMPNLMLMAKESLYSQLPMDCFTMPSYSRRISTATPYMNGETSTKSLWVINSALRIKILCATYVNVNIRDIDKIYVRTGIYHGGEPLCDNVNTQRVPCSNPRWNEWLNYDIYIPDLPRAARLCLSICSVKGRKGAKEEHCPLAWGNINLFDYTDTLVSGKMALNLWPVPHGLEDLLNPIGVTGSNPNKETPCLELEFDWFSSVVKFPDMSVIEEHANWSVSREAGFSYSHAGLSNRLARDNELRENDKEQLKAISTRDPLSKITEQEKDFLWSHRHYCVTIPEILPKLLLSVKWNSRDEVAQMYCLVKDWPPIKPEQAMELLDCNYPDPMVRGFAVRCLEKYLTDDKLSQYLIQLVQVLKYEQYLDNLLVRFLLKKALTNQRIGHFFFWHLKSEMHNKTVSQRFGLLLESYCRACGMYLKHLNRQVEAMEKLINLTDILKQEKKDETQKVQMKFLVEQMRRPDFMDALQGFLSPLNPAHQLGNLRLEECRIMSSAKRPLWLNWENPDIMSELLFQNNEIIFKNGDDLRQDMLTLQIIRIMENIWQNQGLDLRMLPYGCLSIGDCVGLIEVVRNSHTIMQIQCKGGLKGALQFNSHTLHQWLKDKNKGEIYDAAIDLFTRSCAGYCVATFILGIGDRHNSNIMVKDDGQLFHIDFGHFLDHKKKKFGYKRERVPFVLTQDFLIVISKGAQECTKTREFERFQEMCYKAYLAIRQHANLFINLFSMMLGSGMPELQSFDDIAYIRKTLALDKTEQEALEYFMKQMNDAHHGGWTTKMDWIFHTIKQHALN
Phosphatidylinositol 4,5-bisphosphate 3-kinase catalytic subunit alpha isoform (Homo sapiens), P42336 [M1043I], sequence (P42336 whole entry M1043I, canonical isoform): as the sequence (P42336 whole entry E542K, canonical isoform) above, with K542E, M1043I counted along it
Tyrosine-protein kinase JAK2, sequence (O60674 whole entry): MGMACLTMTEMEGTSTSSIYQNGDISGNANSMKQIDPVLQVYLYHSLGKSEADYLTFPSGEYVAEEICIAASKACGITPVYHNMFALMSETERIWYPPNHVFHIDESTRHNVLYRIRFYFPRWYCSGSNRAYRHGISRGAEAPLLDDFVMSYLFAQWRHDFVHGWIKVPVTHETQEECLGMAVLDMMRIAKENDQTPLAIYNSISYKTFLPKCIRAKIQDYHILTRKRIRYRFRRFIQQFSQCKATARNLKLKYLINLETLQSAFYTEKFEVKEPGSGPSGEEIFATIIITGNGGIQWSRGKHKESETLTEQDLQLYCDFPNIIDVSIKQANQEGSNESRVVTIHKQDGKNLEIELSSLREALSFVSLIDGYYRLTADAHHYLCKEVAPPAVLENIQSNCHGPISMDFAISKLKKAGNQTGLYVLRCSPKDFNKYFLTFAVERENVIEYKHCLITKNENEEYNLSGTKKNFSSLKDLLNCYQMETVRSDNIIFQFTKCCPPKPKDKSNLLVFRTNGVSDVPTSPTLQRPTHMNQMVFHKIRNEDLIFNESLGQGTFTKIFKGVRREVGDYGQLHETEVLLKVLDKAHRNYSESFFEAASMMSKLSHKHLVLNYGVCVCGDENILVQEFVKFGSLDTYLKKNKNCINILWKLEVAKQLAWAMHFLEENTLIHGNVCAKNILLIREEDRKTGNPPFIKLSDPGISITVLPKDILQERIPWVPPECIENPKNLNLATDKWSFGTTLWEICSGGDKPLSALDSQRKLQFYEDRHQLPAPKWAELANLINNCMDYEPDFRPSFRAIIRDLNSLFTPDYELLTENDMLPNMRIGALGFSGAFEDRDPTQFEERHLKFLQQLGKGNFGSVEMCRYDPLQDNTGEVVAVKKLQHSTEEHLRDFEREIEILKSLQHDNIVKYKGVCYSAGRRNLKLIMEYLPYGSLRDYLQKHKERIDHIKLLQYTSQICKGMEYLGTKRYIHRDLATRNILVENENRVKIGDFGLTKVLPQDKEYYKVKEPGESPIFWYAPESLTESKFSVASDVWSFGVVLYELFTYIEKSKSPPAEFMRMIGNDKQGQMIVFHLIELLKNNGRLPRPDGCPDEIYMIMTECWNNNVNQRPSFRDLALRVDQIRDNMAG
Phosphatidylinositol 4,5-bisphosphate 3-kinase catalytic subunit alpha isoform (Homo sapiens), P42336 [H1047Y], sequence (P42336 whole entry H1047Y, canonical isoform): as the sequence (P42336 whole entry E542K, canonical isoform) above, with K542E, H1047Y counted along it
Phosphatidylinositol 4,5-bisphosphate 3-kinase catalytic subunit alpha isoform (Homo sapiens), P42336 [E545A], sequence (P42336 whole entry E545A, canonical isoform): as the sequence (P42336 whole entry E542K, canonical isoform) above, with K542E, E545A counted along it
Phosphatidylinositol 4,5-bisphosphate 3-kinase catalytic subunit alpha isoform (Homo sapiens), P42336 [C420R], sequence (P42336 whole entry C420R, canonical isoform): as the sequence (P42336 whole entry E542K, canonical isoform) above, with C420R, K542E counted along it
Ribosomal protein S6 kinase alpha-6, sequence (Q9UK32 whole entry): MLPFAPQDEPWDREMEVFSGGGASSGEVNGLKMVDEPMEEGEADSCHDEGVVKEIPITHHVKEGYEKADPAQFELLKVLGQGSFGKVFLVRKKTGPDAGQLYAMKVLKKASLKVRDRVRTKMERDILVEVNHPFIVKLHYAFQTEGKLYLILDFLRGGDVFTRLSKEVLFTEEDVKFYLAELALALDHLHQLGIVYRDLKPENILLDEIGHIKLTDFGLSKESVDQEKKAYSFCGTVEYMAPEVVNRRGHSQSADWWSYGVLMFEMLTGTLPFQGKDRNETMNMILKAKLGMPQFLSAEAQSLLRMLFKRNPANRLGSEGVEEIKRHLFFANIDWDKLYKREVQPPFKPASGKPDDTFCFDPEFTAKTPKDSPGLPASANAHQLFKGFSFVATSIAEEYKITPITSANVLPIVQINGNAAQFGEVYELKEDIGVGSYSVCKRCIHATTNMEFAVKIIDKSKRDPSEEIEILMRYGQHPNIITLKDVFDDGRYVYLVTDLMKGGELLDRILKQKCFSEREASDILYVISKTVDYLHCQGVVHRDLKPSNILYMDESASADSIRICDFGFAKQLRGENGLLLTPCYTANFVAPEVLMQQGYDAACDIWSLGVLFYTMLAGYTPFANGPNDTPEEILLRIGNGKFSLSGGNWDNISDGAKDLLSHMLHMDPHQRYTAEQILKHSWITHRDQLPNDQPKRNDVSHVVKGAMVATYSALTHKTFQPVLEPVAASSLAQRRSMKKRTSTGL

Turning to `Cc1cc([C@@H](C)Nc2ccccc2C(=O)O)c2nc(N3CCOCC3)cc(=O)n2c1` [AZD-6482], the % of control in [1] came out at 62%; in experiment [2] it was 98%.
Consider `CN(C)CCOc1ccc(-c2nc(-c3ccncc3)c(-c3ccc4c(c3)CC/C4=N\O)[nH]2)cc1`, for which the % of control was 100% in experiment [3]; 93% in experiment [4]; 83% in experiment [5]; 88% in experiment [6]; 84% in [7]; 82% in [8].
Take `N#Cc1cccc(-c2c[nH]c3ncnc(N4CCOCC4)c23)c1`: in experiment [9], the % of inhibition is -2%.
With `CC[C@@H]1[C@H](F)C(=O)N[C@@H]1COc1nccc2cc(C(N)=O)c(OC)cc12` [ZIMLOVISERTIB], the % of inhibition in experiment [10] came out at 5.76%.
`C=CC(=O)Nc1cc(-n2c(=O)ccc3cnc4ccc(-c5ccc(NS(C)(=O)=O)cc5)cc4c32)ccc1C`: the % of control in [11] (at 1 µM) and in experiment [11] (at 10 µM) was 100% in each case.

Values taken from ChEMBL document CHEMBL5465560, “Selectivity Literature for EUbOPEN Chemogenomic Library” (2024).
